Values quoted from earlier work in US6150359A, “Naphthyridinones for inhibiting protein tyrosine kinase and cell cycle kinase mediated cellular proliferation” (Warner-Lambert Company, priority 2000, dated 2000).

Experiments:
[1] = system: cdk2; conditions: cited from earlier work
[2] = system: human tumor cell lines; conditions: approximately 60 NCI human tumor cell lines; cited from earlier work

Cn1cnc2c(NCc3ccccc3)nc(NCCO)nc21 [Olomoucine, 2-(hydroxyethylamine)-6-benzylamine-9-methylpurine]
inhibition of cdk2 [1]: potent inhibitor of cdk2 and cdk5
inhibition of proliferation of human tumor cell lines [2]: shown to inhibit proliferation of approximately 60 different human tumor cell lines
